Laboratory results: the supplement of paper PMC5908809

How the values were obtained:
[1] = tested on: normal NK cells expanded with K562-aAPC; test: drug sensitivity score (DSS) (DSS units); higher = more sensitive; extreme values may be limits of the assay; settings: 72 h; IL-2 2.5 ng/mL
Description: (§1)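 Drug sensitivity and resistance testing on K562-aAPC-expanded normal NK cells: 5 concentrations (10-fold steps over a 10,000-fold range), 72 h at 37 °C, viability by CellTiter-Glo normalised to DMSO and benzethonium chloride controls; DSS from the fitted curve.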

[2] = tested on: NK-92 (IL-2 2.5 ng/mL); test: as above; settings: 72 h
[3] = tested on: normal primary NK cells, pool 1 (3 donors), resting (IL-2 0 ng/mL); test: as above; settings: 72 h
[4] = tested on: normal primary NK cells, pool 2 (3 donors) (IL-2 2.5 ng/mL); test: as above; settings: 72 h
[5] = tested on: normal primary NK cells, pool 3 (3 donors) (IL-2 2.5 ng/mL); test: as above; settings: 72 h
[6] = tested on: NK-YS (IL-2 2.5 ng/mL); test: as above; settings: 72 h
[7] = tested on: SNK-6 (IL-2 2.5 ng/mL); test: as above; settings: 72 h
[8] = tested on: IMC-1 (IL-2 20 ng/mL); test: as above; settings: 72 h
[9] = tested on: KHYG-1 (IL-2 2.5 ng/mL); test: as above; settings: 72 h
[10] = tested on: normal primary NK cells, pool 1 (3 donors) (IL-2 2.5 ng/mL); test: as above; settings: 72 h
[11] = tested on: NKL (IL-2 2.5 ng/mL); test: as above; settings: 72 h
[12] = tested on: DERL-7 (IL-2 2.5 ng/mL); test: as above; settings: 72 h
[13] = tested on: YT (IL-2 2.5 ng/mL); test: as above; settings: 72 h
[14] = tested on: KAI3 (IL-2 2.5 ng/mL); test: as above; settings: 72 h
[15] = tested on: NK-92 (IL-2 2.5 ng/mL); test: percent inhibition of viability; higher = more inhibition; settings: 72 h
[16] = tested on: normal primary NK cells, pool 1 (3 donors), resting (IL-2 0 ng/mL); test: as above; settings: 72 h
[17] = tested on: normal primary NK cells, pool 2 (3 donors) (IL-2 2.5 ng/mL); test: as above; settings: 72 h
[18] = tested on: normal primary NK cells, pool 3 (3 donors) (IL-2 2.5 ng/mL); test: as above; settings: 72 h
[19] = tested on: NK-YS (IL-2 2.5 ng/mL); test: as above; settings: 72 h
[20] = tested on: SNK-6 (IL-2 2.5 ng/mL); test: as above; settings: 72 h
[21] = tested on: IMC-1 (IL-2 20 ng/mL); test: as above; settings: 72 h
[22] = tested on: KHYG-1 (IL-2 2.5 ng/mL); test: as above; settings: 72 h
[23] = tested on: normal primary NK cells, pool 1 (3 donors) (IL-2 2.5 ng/mL); test: as above; settings: 72 h
[24] = tested on: NKL (IL-2 2.5 ng/mL); test: as above; settings: 72 h
[25] = tested on: DERL-7 (IL-2 2.5 ng/mL); test: as above; settings: 72 h
[26] = tested on: YT (IL-2 2.5 ng/mL); test: as above; settings: 72 h
[27] = tested on: KAI3 (IL-2 2.5 ng/mL); test: as above; settings: 72 h
[28] = tested on: normal NK cells expanded with K562-aAPC; test: as above; settings: 72 h, IL-2 2.5 ng/mL
Description: as §1

S=P(N1CC1)(N1CC1)N1CC1 [Thio-TEPA] (max concentration tested 50000 nM)
Settings	drug sensitivity score
[1]	0
[2]	5.84
[3]	1.68
[4]	1.52
[5]	0
[6]	1.65
[7]	1.69
[8]	0
[9]	0
[10]	0
[11]	8.54
[12]	0
[13]	0
[14]	8.32

percent inhibition of viability [%]
Settings	5 nM	50 nM	500 nM	5000 nM	50000 nM
[15]	-3.47	8.15	14.3	25.1	37.1
[16]	-8.22	7.58	6.34	14.9	17.1
[17]	-1.52	9.19	11.7	8.43	19.8
[18]	-5.53	7.66	3.04	4.82	3.08
[19]	-1.57	-3.69	3	9.54	24.2
[20]	-0.04	-12.4	-4.8	-5.86	41.2
[21]	-2.71	-4.91	-3.42	-4.6	8.77
[22]	-7.42	-4.16	1.44	6.58	8.07
[23]	0.27	11.7	6.98	8.81	2.16
[24]	-8.09	4.28	15.5	33.8	72.4
[25]	1.93	5.03	-0.04	1.45	3.25
[26]	-4.88	-5.74	1.43	6.47	8.31
[27]	-3.61	-4.29	12.8	35.4	69.6
[28]	-5.81	-5.71	-4.89	3.45	9
